Patent publication US20120294869A1, “Methods for Treating Fatty Liver Disease” (Nevada Cancer Institute, priority 2011, published 2012)
Read-outs that look alike come from different tables or passages of the source.

Key:
[1] = Fate of an i.p. tracer dose of [3H]Urd in mouse plasma; type: in vivo; settings: for half-life: plasma, ip
Description: The UPP-1-KO mouse was created by replacing a 2.5 kb fragment of the UPP-1 gene (including exons 4 and 5) with a 1.6 kb neomycin resistance expression cassette. See, e.g., Cao, D. et al. (2002) Cancer Res. 62: 2313-2317 and Cao, D. et al. (2005) J. Biol. Chem. 280: 21169-21175. […] The absence of UPP-1 phosphorolytic (UPase) activity was confirmed by determining the fate of a tracer dose (25 μCi/mouse) of [^3H]Urd injected intraperitoneally (i.p.) in mice. A very rapid disappearance of [^3H]Urd from the plasma of wild-type (WT) mice was observed, with a t1/2, of approximately […] due to active phosphorolysis.
Enzymatic activity in liver was 10.7±0.3 nmol/hr/mg for the WT animals compared to 252±68 nmol/hr/mg for the transgenic. In WT mice, a tracer dose of [^3H]Urd (25 μCi, i.p.) was rapidly degraded with a t1/2, of approximately 4 minutes. […] Table 1 summarizes the concentrations of URD in WT C57BL/6 mice, the UPP-1-KO and the UPP-1-TG models.

UPP-2 = settings: mouse liver tissue; cited from earlier work
UPP-1-TG mice [2] = assay: Raman spectroscopy of lipid-chain unsaturation in liver lipid droplets; type: in vivo, mouse; settings: UPP-1-TG mice fed with Urd
Description: Red and blue arrows point to 1445 cm^−1 and 1660 cm^−1 peaks, respectively. (B) is a graph showing that 11660/11445 is linearly dependent on lipid-chain unsaturation. (C) is a bar graph depicting lipid-chain unsaturation of liver lipid droplets as a function of WT and UPP-1-TG mice. Error bars represent standard deviation across 18 lipid droplets measured.
In control UPP-1-TG mice, the value of 11660/11445, which is a reliable measure of lipid-chain unsaturation (FIG. 4A-B; Rinia, H. A., et al (2008) Biophysical Journal 95: 4908-4914, 2008), was 1.05 (FIG. 4C). In UPP-1-TG mice fed with Urd, the 11660/11445 value of liver lipid droplets was 0.3. The 11660/11445 value of liver lipid droplets was 0.8 for control WT mice.

[3] = tested on: Primary hepatocytes from UPP-1-TG mice; assay: Intracellular lipid droplet accumulation in primary hepatocytes (CARS); type: cell-based, mouse; settings: UPP-1-TG primary hepatocytes, 24 hour incubation, 100 μM Urd
Description: (B) is a bar graph representing quantitative analysis of intracellular lipid level in 15 isolated hepatocytes from each group. Intracellular lipid level is defined as the square root of the CARS signal arising from the intracellular lipid droplets of each hepatocyte. Intracellular lipid level is normalized to 1 for WT hepatocytes.
To further confirm our results and to provide a more practical in vitro method, short term cultures of primary liver hepatocytes were generated. WT and UPP-1-TG mouse hepatocytes were isolated using a two-step collagenase perfusion technique initially described by Seglen (Seglen, P.O. (1976) Methods Cell Biol. 13: 29-83). Viability ranged from 80-90% as determined by trypan blue exclusion. Hepatocyte enrichment reached approximately 85-90%. Cells were monitored for albumin expression through 72 hours, with no discernible differences when compared to the initial isolation.

UPP-1-TG mice [4] = assay: CARS imaging of liver lipid accumulation after dietary Urd supplementation; type: in vivo, mouse; settings: Urd 2 to 5% in dry diet
Description: Images are presented as 3-D stacks. (B) is a bar graph representing quantitative analysis of liver lipid in 18 probed volumes with xyz dimensions of 125×125×25 μm. Three mice per group were used for analysis. Lipid level is defined as the square root of the CARS signal arising from the lipid droplets. Lipid level is normalized to 1 for WT mice. Error bars represent the standard deviations. (C) is a graph depicting Raman spectroscopy analysis of lipid droplet composition.
Using CARS microscopy to image 100-micron thick sections of explanted liver tissues, the effect of the disruption of URD homeostasis on liver lipids was evaluated. As reprinted in FIG. 1, a dramatic difference in liver lipid accumulation among WT, UPP-1-KO and UPP-1-TG mice was observed. […] To confirm the results obtained through CARS microscopy, Oil Red O staining (specific for neutral triglycerides and lipids) of the frozen liver sections was conducted, which yielded similar results to the CARS technology (data not shown).

O=c1ccn([C@@H]2O[C@H](CO)[C@@H](O)[C@H]2O)c(=O)[nH]1 [[^3H]Urd]
half-life ([1]; C57BL/6, mouse, 25 μCi/mouse, wild-type (WT) mice, tracer dose 25 μCi/mouse i.p., read-out: [3H]Urd plasma t1/2): ~4 min | [3H]Urd detectability after administration ([1]; UPP-1-TG (ubiquitous UPP-1 transgenic), mouse, in vivo, 15 minutes): no [^3H]Urd detectable | half-life ([1]; UPP-1-TG (ubiquitous UPP-1 transgenic), mouse, 25 μCi, UPP-1-TG mice, tracer dose 25 μCi i.p., read-out: [3H]Urd t1/2): < 0.5 min | half-life ([1]; mouse, 25 μCi/mouse, UPP-1-KO mice, tracer dose 25 μCi/mouse i.p., read-out: [3H]Urd plasma t1/2): 15 to 18 min

O=S(=O)(c1ccccc1)N(CC(F)(F)F)c1ccc(C(O)(C(F)(F)F)C(F)(F)F)cc1 [T0901317]
effect on UPP-2 expression in mouse liver (UPP-2): potent induction

O=c1ccn([C@@H]2O[C@H](CO)[C@@H](O)[C@H]2O)c(=O)[nH]1 [Urd, uridine]
11660/11445 value of liver lipid droplets (lipid-chain unsaturation) (UPP-1-TG mice [2]): 0.3 | reduction in intracellular lipid droplet accumulation [3]: 10 fold | reduction of liver lipid accumulation (UPP-1-TG mice [4]): ~15 fold
